# Results reported in US20260285850A1, “SUBSTITUTED OXAZOLIDINONES AND IMIDAZOLINONES AS HERBICIDES” (FMC CORPORATION, priority 2023, published 2026).
# Experiments:
# Format in all cases: in vivo
# [1] = tested on: horseweed (Erigeron canadensis); test: Test A postemergence application, visual injury rating 0-100; conditions: 10 days
# Summary of the method: (§1)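 Plants were grown in a loam soil-sand blend and treated with test chemical in a non-phytotoxic solvent mixture containing surfactant, either sprayed on soil preemergence or applied postemergence to 2-10 cm plants. After 10 days in a greenhouse, injury was scored visually against untreated controls, 0 meaning no effect and 100 complete control.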
# corn (Zea mays) [2] = test: as above; conditions: 10 days
# Summary of the method: as §1
# soybean (Glycine max) [3] = test: as above; conditions: 10 days
# Summary of the method: as §1
# [4] = tested on: oat, wild (wild oat, Avena fatua); test: as above; conditions: 10 days
# Summary of the method: as §1
# [5] = tested on: palmer (palmer amaranth, palmer pigweed, Amaranthus palmeri); test: as above; conditions: 10 days
# Summary of the method: as §1
# [6] = tested on: wheat (Triticum aestivum); test: as above; conditions: 10 days
# Summary of the method: as §1
# [7] = tested on: ryegrass, Italian (italian ryegrass, Lolium multiflorum); test: as above; conditions: 10 days
# Summary of the method: as §1
# [8] = tested on: blackgrass (Alopecurus myosuroides); test: as above; conditions: 10 days
# Summary of the method: as §1
# [9] = tested on: barnyardgrass (Echinochloa crus-galli); test: as above; conditions: 10 days
# Summary of the method: as §1
# [10] = tested on: galium (catchweed bedstraw, Galium aparine); test: as above; conditions: 10 days
# Summary of the method: as §1
# kochia (Bassia scoparia) [11] = test: as above; conditions: 10 days
# Summary of the method: as §1
# [12] = tested on: ragweed (common ragweed, Ambrosia artemisiifolia); test: as above; conditions: 10 days
# Summary of the method: as §1
# corn (Zea mays) [13] = test: Test A preemergence soil spray, visual injury rating 0-100; conditions: 10 days, 0 = no effect, 100 = complete control
# Summary of the method: as §1
# soybean (Glycine max) [14] = test: as above; conditions: 10 days, 0 = no effect, 100 = complete control
# Summary of the method: as §1
# [15] = tested on: oat, wild (wild oat, Avena fatua); test: as above; conditions: 10 days, 0 = no effect, 100 = complete control
# Summary of the method: as §1
# [16] = tested on: palmer (palmer amaranth, palmer pigweed, Amaranthus palmeri); test: as above; conditions: 10 days, 0 = no effect, 100 = complete control
# Summary of the method: as §1
# [17] = tested on: wheat (Triticum aestivum); test: as above; conditions: 10 days, 0 = no effect, 100 = complete control
# Summary of the method: as §1
# [18] = tested on: ryegrass, Italian (italian ryegrass, Lolium multiflorum); test: as above; conditions: 10 days, 0 = no effect, 100 = complete control
# Summary of the method: as §1
# [19] = tested on: blackgrass (Alopecurus myosuroides); test: as above; conditions: 10 days, 0 = no effect, 100 = complete control
# Summary of the method: as §1
# [20] = tested on: barnyardgrass (Echinochloa crus-galli); test: as above; conditions: 10 days, 0 = no effect, 100 = complete control
# Summary of the method: as §1
# kochia (Bassia scoparia) [21] = test: as above; conditions: 10 days, 0 = no effect, 100 = complete control
# Summary of the method: as §1
# [22] = tested on: ragweed (common ragweed, Ambrosia artemisiifolia); test: as above; conditions: 10 days, 0 = no effect, 100 = complete control
# Summary of the method: as §1
# [23] = tested on: ducksalad (Heteranthera limosa); test: Test B flooded paddy test, visual plant response rating 0-100; conditions: 250 g ai/ha, Flood, applied to paddy water, evaluated after 13 days
# Summary of the method: (§2)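 In this flooded assay, 2-leaf seedlings received compound through the water layer, kept at 3 cm over the soil. Plants were held 13 days in a greenhouse and then visually compared with control pots.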
# [24] = tested on: sedge, umbrella (small-flower umbrella sedge, Cyperus difformis); test: as above; conditions: 250 g ai/ha, Flood, applied to paddy water, evaluated after 13 days
# Summary of the method: as §2
# [25] = tested on: barnyardgrass (Echinochloa crusgalli); test: as above; conditions: 250 g ai/ha, Flood, applied to paddy water, evaluated after 13 days
# Summary of the method: as §2
# rice (Oryza sativa) = test: as above; conditions: 250 g ai/ha, Flood, applied to paddy water, evaluated after 13 days
# Summary of the method: as §2
# [26] = 31 g ai/ha, postemergence, 0 = no effect, 100 = complete control
# [27] = Postemergence, 125 g ai/ha, 0 is no effect, 100 is complete control
compound,measurement,setting,value
CCOC(=O)C1=CCC(NC(=O)C2(C)CN(c3cc(Cl)cc(Cl)c3)C(=O)O2)C1 (stereo not drawn) [Compound 60],Horseweed plant response rating (0-100),[1]; [26],70
same,Horseweed plant response rating (0 to 100 scale),[1]; [27],90
same,Corn plant response rating (0-100),corn (Zea mays) [2]; [26],90
same,Corn plant response rating (0 to 100 scale),corn (Zea mays) [2]; [27],100
same,Soybean plant response rating (0-100),soybean (Glycine max) [3]; [26],90
same,Soybean plant response rating (0 to 100 scale),soybean (Glycine max) [3]; [27],100
same,"Oat, Wild plant response rating (0-100)",[4]; [26],10
same,"Oat, Wild plant response rating (0 to 100 scale)",[4]; [27],90
same,"Amaranth, Palmer plant response rating (0-100)",[5]; [26],90
same,"Amaranth, Palmer / Pigweed, Palmer plant response rating (0 to 100 scale)",[5]; [27],100
same,Wheat plant response rating (0-100),[6]; [26],40
same,Wheat plant response rating (0 to 100 scale),[6]; [27],90
same,"Ryegrass, Italian plant response rating (0-100)",[7]; [26],90
same,"Ryegrass, Italian plant response rating (0 to 100 scale)",[7]; [27],100
same,Blackgrass plant response rating (0-100),[8]; [26],90
same,Blackgrass plant response rating (0 to 100 scale),[8]; [27],100
same,Barnyardgrass plant response rating (0-100),[9]; [26],90
same,Barnyardgrass plant response rating (0 to 100 scale),[9]; [27],90
same,Galium plant response rating (0-100),[10]; [26],90
same,Galium plant response rating (0 to 100 scale),[10]; [27],90
same,Kochia plant response rating (0-100),kochia (Bassia scoparia) [11]; [26],80
same,Kochia plant response rating (0 to 100 scale),kochia (Bassia scoparia) [11]; [27],80
same,Ragweed plant response rating (0-100),[12]; [26],0
same,Ragweed plant response rating (0 to 100 scale),[12]; [27],20
same,Corn plant response rating (0-100),corn (Zea mays) [13]; 31 g ai/ha,0
same,Corn plant response rating (0 to 100 scale),corn (Zea mays) [13]; 125 g ai/ha,60
same,Soybean plant response rating (0-100),soybean (Glycine max) [14]; 31 g ai/ha,10
same,Soybean plant response rating (0 to 100 scale),soybean (Glycine max) [14]; 125 g ai/ha,40
same,"Oat, Wild plant response rating (0-100)",[15]; 31 g ai/ha,0
same,"Oat, Wild plant response rating (0 to 100 scale)",[15]; 125 g ai/ha,20
same,"Amaranth, Palmer plant response rating (0-100)",[16]; 31 g ai/ha,100
same,"Amaranth, Palmer plant response rating (0 to 100 scale)",[16]; 125 g ai/ha,100
same,Wheat plant response rating (0-100),[17]; 31 g ai/ha,20
same,Wheat plant response rating (0 to 100 scale),[17]; 125 g ai/ha,80
same,"Ryegrass, Italian plant response rating (0-100)",[18]; 31 g ai/ha,60
same,"Ryegrass, Italian plant response rating (0 to 100 scale)",[18]; 125 g ai/ha,90
same,Blackgrass plant response rating (0-100),[19]; 31 g ai/ha,0
same,Blackgrass plant response rating (0 to 100 scale),[19]; 125 g ai/ha,50
same,Barnyardgrass plant response rating (0-100),[20]; 31 g ai/ha,60
same,Barnyardgrass plant response rating (0 to 100 scale),[20]; 125 g ai/ha,100
same,Kochia plant response rating (0-100),kochia (Bassia scoparia) [21]; 31 g ai/ha,40
same,Kochia plant response rating (0 to 100 scale),kochia (Bassia scoparia) [21]; 125 g ai/ha,90
same,Ragweed plant response rating (0-100),[22]; 31 g ai/ha,30
same,Ragweed plant response rating (0 to 100 scale),[22]; 125 g ai/ha,60
same,"Plant response rating, Ducksalad (0 to 100 scale, 0 is no effect and 100 is complete control)",[23],95
same,"Plant response rating, Sedge, Umbrella (0 to 100 scale, 0 is no effect and 100 is complete control)",[24],100
same,"Plant response rating, Barnyardgrass (0 to 100 scale, 0 is no effect and 100 is complete control)",[25],70
same,"Plant response rating, Rice (0 to 100 scale, 0 is no effect and 100 is complete control)",rice (Oryza sativa),65
